Results taken from PMC6282583 (Chemmedchem, 2018).

Tests used:
endothiapepsin [1] = target: T1, endothiapepsin (Cryphonectria parasitica, UniProt P11838); assay: fluorescence-based protease assay adapted from HIV-protease assay; type: biochemical
T1 sequence (P11838 90-419): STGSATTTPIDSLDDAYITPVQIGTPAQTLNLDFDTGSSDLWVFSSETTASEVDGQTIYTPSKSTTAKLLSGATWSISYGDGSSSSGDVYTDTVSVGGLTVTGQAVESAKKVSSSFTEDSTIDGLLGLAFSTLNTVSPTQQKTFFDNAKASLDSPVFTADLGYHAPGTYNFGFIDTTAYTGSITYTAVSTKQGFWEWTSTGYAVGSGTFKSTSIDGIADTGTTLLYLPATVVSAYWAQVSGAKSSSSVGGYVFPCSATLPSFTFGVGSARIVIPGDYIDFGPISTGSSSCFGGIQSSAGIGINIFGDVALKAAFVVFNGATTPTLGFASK

endothiapepsin [2] = target: T1, endothiapepsin; assay: as above; type: biochemical; remark: listed apart in the source

Ki (endothiapepsin [1]) [µM] | IC50 (endothiapepsin [2]) [µM] | SMILES
6.1 ± 0.4 | 12.9 ± 0.7 | Cc1cc(C)c(CCNC(=O)[C@@H](N)Cc2c[nH]c3ccccc23)c(C)c1 [(S)-2]
13.5 ± 1.9 | 28.7 ± 4.1 | Cc1cc(C)c(CCOC(=O)[C@@H](N)Cc2c[nH]c3ccccc23)c(C)c1 [(S)-3]

SMILES | Ki (endothiapepsin [1]) [µM] | IC50 (endothiapepsin [2]) [µM]
Cc1cc(C)c(Cc2csc([C@@H](N)Cc3c[nH]c4ccccc34)n2)c(C)c1 [(S)-4] | 91.2 ± 5.4 | 194 ± 11.4
